What follows are molecules tested on ApoB-100-associated lipoproteins released from HepG2 cells (assay: Inhibition of the release of ApoB-100-associated lipoproteins from cultured hepatic HepG2 cells (immunoassay for human LDL)). Settings: HepG2 cells; culture supernatant; absorption at 450 nm inhibited by 50% vs solvent control; read-out: Apo B IC50.
Type: cell-based
Procedure: 1. Inhibition of the Release of ApoB-100-associated Lipoproteins
The test for detection of the inhibition of the release of ApoB-100-associated lipoproteins from hepatic cells was carried out in vitro with cultured hepatic cells, preferably with cells of the human line HepG2. These cells are cultured under standard conditions in medium for culture of eukaryotic cells, preferably in RPMI 1640 with 10% foetal calf serum. HepG2 cells synthesize and secrete into the culture supernatant ApoB-100-associated lipoprotein particles, which are in principle built up similarly to the VLDL and LDL particles which are to be found in plasma.
These particles can be detected with an immunoassay for human LDL. This immunoassay is carried out with antibodies which have been induced against human LDL in rabbits under standard conditions. The anti-LDL antibodies (rab-anti-LDL-Ab) were purified by affinity chromatography on an immunosorbent with human LDL. These purified rab-anti-LDL-Ab are adsorbed onto the surface of plastic. This adsorption is expediently carried out on the plastic surface of microtiter plates with 96 wells, preferably on MaxiSorp plates. If ApoB-100-associated particles are present in the supernatant of Hep-G2 cells, these can bond to the insolubilized rab-anti-LDL-Ab, and an immune complex bonded to the plastic surface is formed. Non-bonded proteins are removed by washing The immune complex on the plastic source is detected with monoclonal antibodies, which have been induced against human LDL and purified under standard conditions. These antibodies were conjugated with the enzyme peroxidase. Peroxidase converts the colourless substrate TMB into a coloured product in the presence of H2 O2. After acidification of the reaction mixture with H2 SO4, the specific absorption of light is determined at 450 nm, this being a measure of the amount of ApoB-100-associated particles wich had been secreted by the HepG2 cells into the culture supernatant.
The IC50 value indicates the concentration of substance at which the absorption of light is inhibited by 50% compared with the control (solvent control without the substance).

IC50 [nM]	SMILES
11.6	CSc1nc2ccccc2n1Cc1ccc(C(C(=O)N[C@@H](CO)c2ccccc2)C2CCCC2)cc1 (single isomer, unassigned) [Example 3]
298	CSc1nc2ccccc2n1Cc1ccc(C(C(=O)N[C@@H](CO)c2ccccc2)C2CCCC2)cc1 (single isomer, unassigned) [Example 4]
8	CSc1nc2ccccc2n1Cc1ccc(C(C(=O)N[C@@H](CO)c2ccccc2)C2CCCCCC2)cc1 (single isomer, unassigned) [Example 6]
150	CSc1nc2ccccc2n1Cc1ccc(C(C(=O)N[C@@H](CO)c2ccccc2)C2CCCCCC2)cc1 (single isomer, unassigned) [Example 7]
14.3	O=C(N[C@@H](CO)c1ccccc1)C(c1ccc(Cn2c(SCc3ccccc3)nc3ccccc32)cc1)C1CCCC1 (single isomer, unassigned) [Example 13]
930	O=C(CSc1nc2ccccc2n1Cc1ccc(C(C(=O)N[C@@H](CO)c2ccccc2)C2CCCC2)cc1)c1ccccc1 (single isomer, unassigned) [Example 18]
388	O=C(CSc1nc2ccccc2n1Cc1ccc(C(C(=O)N[C@@H](CO)c2ccccc2)C2CCCC2)cc1)c1ccccc1 (single isomer, unassigned) [Example 19]
147	Cc1cc2nc(C(F)(F)F)n(Cc3ccc(C(C(=O)N[C@@H](CO)c4ccccc4)C4CCCC4)cc3)c2cc1C (single isomer, unassigned) [Example 23]
16.3	Cc1cc2nc(C(F)(F)F)n(Cc3ccc(C(C(=O)N[C@@H](CO)c4ccccc4)C4CCCC4)cc3)c2cc1C (single isomer, unassigned) [Example 24]
4.5	O=C(N[C@@H](CO)c1ccccc1)C(c1ccc(Cn2c(-c3cscn3)nc3ccccc32)cc1)C1CCCC1 (single isomer, unassigned) [Example 26]
90.9	O=C(N[C@@H](CO)c1ccccc1)C(c1ccc(Cn2c(-c3cscn3)nc3ccccc32)cc1)C1CCCC1 (single isomer, unassigned) [Example 27]
112	O=C(N[C@@H](CO)c1ccccc1)C(c1ccc(Cn2c(-c3cscn3)nc3ccccc32)cc1)C1CCCCCC1 (single isomer, unassigned) [Example 30]
7.3	O=C(N[C@@H](CO)c1ccccc1)C(c1ccc(Cn2c(-c3cscn3)nc3ccccc32)cc1)C1CCCCCC1 (single isomer, unassigned) [Example 31]
26.6	Cc1nc(-c2nc3ccccc3n2Cc2ccc(C(C(=O)N[C@@H](CO)c3ccccc3)C3CCCC3)cc2)cs1 (single isomer, unassigned) [Example 34]
11.2	Cc1nc(-c2nc3ccccc3n2Cc2ccc(C(C(=O)N[C@@H](CO)c3ccccc3)C3CCCC3)cc2)cs1 (single isomer, unassigned) [Example 35]

Same assay, conditions: Homo sapiens, HepG2, HepG2 cells; culture supernatant; absorption at 450 nm inhibited by 50% vs solvent control; read-out: Apo B IC50

IC50 [nM]	SMILES
15.2	C[S+]([O-])c1nc2ccccc2n1Cc1ccc(C(C(=O)N[C@@H](CO)c2ccccc2)C2CCCCCC2)cc1 (mixture of isomers) [Example 79, 2-(R/S)-Cycloheptyl-N-(2-hydroxy-1-(R)-phenylethyl)-2-[4-(2-methyl-(R/S)-sulphinyl-benzimidazol-1-ylmethyl)phenyl]acetamide]
12.6	O=C(N[C@@H](CO)c1ccccc1)C(c1ccc(Cn2c(SCc3ccccc3)nc3ccccc32)cc1)C1CCCC1 (single isomer, unassigned) [Example 12]
44.4	Cc1nc2ccccc2c(=O)n1Cc1ccc(C(C(=O)N[C@@H](CO)c2ccccc2)C2CCCC2)cc1 (stereo partly drawn) [Example 1, 2-Cyclopentyl-N-(2-hydroxy-1-(R)-phenylethyl)-2-[4-(2-methyl-4-oxo-4H-quinazolin-3-yl-methyl)phenyl]acetamide]
38.1	CSc1nc2ccccc2n1Cc1ccc(C(C(=O)N[C@@H](CO)c2ccccc2)C2CCCC2)cc1 (stereo partly drawn) [Example 2]
36	CSc1nc2ccccc2n1Cc1ccc(C(C(=O)N[C@@H](CO)c2ccccc2)C2CCCCCC2)cc1 (stereo partly drawn) [Example 5]
4.7	CSc1nc2cc(C)c(C)cc2n1Cc1ccc(C(C(=O)N[C@@H](CO)c2ccccc2)C2CCCC2)cc1 (stereo partly drawn) [Example 8]
